Reference: patent publication EP4008716A1, “NOVEL INHIBITORS OF INSULIN-LIKE GROWTH FACTOR 2 MRNA BINDING PROTEINS” (Martin-Luther-Universität Halle-Wittenberg, priority 2020, dated 2022)

Each compound was assayed on ES-2 cells (assay: Cytotoxicity / cell vitality by cell confluency (IncuCyte live-cell imaging) relative to DMSO controls). Conditions: Homo sapiens, ovarian cancer-derived ES-2 cells, 72 h post compound application, eleven concentrations, two-fold dilution from 20µM, mean of three independent studies.
Format: cell-based
Experimental: All novel inhibitors were explored for their cytotoxic activity in ovarian cancer-derived ES-2 cells. In these cell models, BTYNB was prior shown to impair cell vitality and metastatic potential in vitro and cancer mouse models (15). For the respective studies ES-2 cells were plated and exposed to increasing concentration of the compounds and cell vitality was monitored by determining cell confluency relative to DMSO controls using an IncuCyte cell imaging system, essentially as described recently (15). For determining the impact of the developed compounds on ES-2 cell vitality, cells were cultured in Dulbecco's modified eagle medium (DMEM) containing phenol red, 4.5 g/L D-Glucose, 0.11 g/L sodium pyruvate, 10% (v/v) fetal bovine serum (FBS) and 2 mM GlutaMAX (Sigma-Aldrich, Darmstadt, Germany). Cells were maintained in under humidified conditions at 37 °C, 5% CO2. For cytotoxicity studies, cells were seeded in 96-well flat-bottom plates at 2 x 10^3 cells per well in 100 µL supplemented DMEM and incubated for 24 h prior to addition of BTYNB derivatives. Compounds were analyzed at eleven concentrations using a two-fold dilution with an initial compound concentration of 20µM in DMSO (solvent). Cells treated with 0.002% (v/v) DMSO served as controls. Cytotoxicity of compound concentrations was determined 72 h post compound application by monitoring cell confluency using an IncuCyte Systems for Live-Cell Imaging. Cell confluency was determined with the IncuCyte 2019B Rev2 software. Confluency of controls was set to 1 (100%) and altered confluency at distinct compound concentrations was calculated as relative confluency. The mean relative confluency at compound concentrations was analyzed in three independent studies with three technical replicates each. The mean values of three analyses were plotted against the logarithmic concentration of compounds and fitted by the non-linear module [Sigmoidal, 4PL, X is log(concentration)] using GraphPad Prism V9(86) for macOS. In Table 1 compounds with EC50 values, indicating the potency of the 58 developed compounds to impair cell vitality, are listed. […] Table 2: EC-values of the synthesized compounds of formula (I)
For `NC(=O)c1cc(Cc2ccccc2)sc1NC(=O)c1ccc(COc2ccc(Br)cc2)cc1` [compound 43, 5-Benzyl-2-({4-[(4-bromophenoxy)methyl]benzoyl}amino)-3-thiophenecarboxamide], the EC50 was 1.19 µM.
In the case of `COc1ccc(C(=O)Nc2sc(Cc3ccccc3)cc2C(N)=O)cc1COc1ccccc1Cl` [compound 44, 5-Benzyl-2-({3-[(2-chlorophenoxy)methyl]-4-methoxybenzoyl}amino)-3-thiophenecarboxamide], the EC50 is reported as 0.439 µM.
In the case of `COc1ccc(C(=O)Nc2sc(Cc3ccccc3)cc2C(N)=O)cc1COc1cccc(Cl)c1Cl` [compound 45, 5-Benzyl-2-({3-[(2,3-dichlorophenoxy)methyl]-4-methoxybenzoyl}amino)-3-thiophenecarboxamide], the EC50 is reported as 0.401 µM.
`COc1ccc(C(=O)Nc2sc(C(C)C)cc2C(N)=O)cc1COc1ccccc1Cl` [compound 46, 2-({3-[(2-Chlorophenoxy)methyl]-4-methoxybenzoyl}amino)-5-isopropyl-3-thiophenecarboxamide] gave an EC50 of 2.23 µM.
With `COc1ccc(C(=O)Nc2sc(Cc3ccccc3)cc2C(N)=O)cc1COc1ccc(Cl)cc1Cl` [compound 47, 5-Benzyl-2-{3-[(2,4-dichlorophenoxy)methyl]-4-methoxybenzamido}thiophene-3-carboxamide] the EC50 was 0.293 µM.
With `COc1ccc(C(=O)Nc2sc(Cc3ccccc3)cc2C(N)=O)cc1OCc1ccccc1Cl` [compound 48, 2-[3-(2-Chlorobenzyloxy)-4-methoxybenzamido]-5-benzylthiophene-3-carboxamide] the EC50 was 1.09 µM.
Compound `NC(=O)c1cc(Cc2ccccc2)sc1NC(=O)c1ccc(COc2ccc(Cl)cc2Cl)s1` [compound 49, N-(5-Benzyl-3-carbamoylthiophen-2-yl)-5-[(2,4-dichlorophenoxy)methyl]thiophene-2-carboxamide] has an EC50 of 0.56 µM.
For `NC(=O)c1cc(Cc2ccccc2)sc1NC(=O)c1cccc(COc2ccc(Cl)cc2Cl)c1` [compound 50, 5-Benzyl-2-{3-[(2,4-dichlorophenoxy)methyl]benzamido}thiophene-3-carboxamide], the EC50 was 0.047 µM.
`COc1ccc(C(=O)Nc2sc(Cc3ccccc3)cc2C(N)=O)cc1COc1cccc(Cl)c1` [compound 51, 5-Benzyl-2-{3-[(3-chlorophenoxy)methyl]-4-methoxybenzamido}thiophene-3-carboxamide] was tested, and the EC50 was 0.355 µM.
Work on `COc1ccc(C(=O)Nc2sc(Cc3ccccc3)cc2C(N)=O)cc1COc1ccc(Cl)cc1` [compound 52, 5-Benzyl-2-{3-[(4-chlorophenoxy)methyl]-4-methoxybenzamido}thiophene-3-carboxamide] yielded an EC50 of 1.02 µM.
Compound `COc1ccc(C(=O)Nc2sc(Cc3ccccc3)cc2C(N)=O)cc1COc1c(Cl)cccc1Cl` [compound 53, 5-Benzyl-2-{3-[(2,6-dichlorophenoxy)methyl]-4-methoxybenzamido}thiophene-3-carboxamide] has an EC50 of 2.6 µM.
Compound `NC(=O)c1cc(Cc2ccccc2)sc1NC(=O)CN1CCN(Cc2ccccc2Cl)CC1` [compound 54, 2-{2-[4-(2-Chlorobenzyl)piperazin-1-yl]acetamido}-5-benzylthiophene-3-carboxamide] has an EC50 of 7.11 µM.
`NC(=O)c1cc(Cc2ccccc2)sc1NC(=O)CN1CCN(Cc2ccc(Cl)c(Cl)c2)CC1` [compound 55, 2-{2-[4-(3,4-Dichlorobenzyl)piperazin-1-yl]acetamido}-5-benzylthiophene-3-carboxamide] gave an EC50 of 4.09 µM.
`NC(=O)c1ccsc1NC(=O)CN1CCN(Cc2ccc(Cl)c(Cl)c2)CC1` [compound 56, 2-{2-[4-(3,4-Dichlorobenzyl)piperazin-1-yl]acetamido}thiophene-3-carboxamide] showed an EC50 of 0.781 µM.
`COc1ccc(C(=O)Nc2sc(C(C)C)cc2C(N)=O)cc1COc1ccc(Br)cc1` [compound 58, 2-({3-[(4-Bromophenoxy)methyl]-4-methoxybenzoyl}amino)-5-isopropyl-3-thiophenecarboxamide] showed an EC50 of 8.35 µM.

Each compound was assayed on ES-2 cells in the same assay as above. Conditions: Homo sapiens, determined in 11 analyses with three technical replicates each.
Format: cell-based
For `NC(=O)c1ccccc1N=Cc1ccc(Br)s1` [BTYNB, 2-{[(5-bromo-2-thienyl)methylene]amino}benzamide], the EC50 was 5.9 µM.
